Reference: patent publication US20030114456A1, “Novel heterocylic compounds with anti-inflamatory activity” (priority 2000, published 2003)
Structures can show the parent of a compound that is named as a salt.

Experiments:
human COX-1 = molecular target: T1, human COX-1 (Homo sapiens, UniProt P23219); assay: Inhibition of COX-1 activity (PGE2 production after arachidonic acid) in U-937 cells; assay type: cell-based; settings: 0.1 μM test compound, PGE2 production after 10 μM arachidonic acid
T1 construct: cell lines expressing human COX-1 (U-937 from human histiocitic lymphoma); endogenous in cells; host or cells: U-937 (human histiocytic lymphoma)
Method: (§1) Inhibition of cyclooxygenase-1 (COX-1) and cyclooxygenase-2 (COX-2) Activity in Human Cell Lines
(§2) The inhibition of COX-1 and COX-2 is determined by assessing the PGE2 production after stimulation with arachidonic acid in cell lines expressing human COX-1 (U-937 from human histiocitic lymphoma) and human COX-2 (143.98.2 from human osteosarcoma), respectively.
(§3) The osteosarcoma-derived cells were cultured in 1 mL of DMEM culture medium supplemented with 10% fetal calf serum, in 24-well multidishes until confluence. U-937 cells were cultured in RPMI medium supplemented with 10% fetal calf serum in flasks.
(§4) To evaluate COX-2 activity, the medium was removed and replaced with Hepes-buffered saline solution (HBSS) without Ca^2+/Mg^2+ (2×10^5 cells/well). To evaluate COX-1 activity, the medium was removed and U-937 cells were resuspended to a final density of 3×10^6 cells/mL in HBSS without Ca^2+/Mg^2+ (1 mL/well, in 24-well multidishes). 1 μL of a solution of the test compound dissolved in DMSO or vehicle was added, and the samples were incubated for 15 min at 37° C. (5% CO2 and 95% humidity). Arachidonic acid was added (final concentration: 10 μM) and the samples were incubated for 10 min more. Next the reactions were quenched by adding indomethacin (8 mM, 30 μL). The amount of PGE2 in the supernatant was determined by specific enzymatic immunoassay (Kit Prostaglandin E2, Biotrak EIA system RPN222, Amersham Pharmacia Biotech). All the assays were performed in triplicate.
(§5) The results obtained with representative compounds of the present invention are shown in the following table, where the % of inhibition of COX-1 and COX-2 activity at a concentration of 0.1 μM of test compound are reported.

human COX-2 = molecular target: T2, human COX-2 (Homo sapiens, UniProt P35354); assay: Inhibition of COX-2 activity (PGE2 production after arachidonic acid) in 143.98.2 osteosarcoma cells; assay type: cell-based; settings: 0.1 μM test compound, PGE2 production after 10 μM arachidonic acid
T2 construct: human COX-2 (143.98.2 from human osteosarcoma), respectively; endogenous in cells; host or cells: 143.98.2 (human osteosarcoma)
T2 sequence (P35354 18-604): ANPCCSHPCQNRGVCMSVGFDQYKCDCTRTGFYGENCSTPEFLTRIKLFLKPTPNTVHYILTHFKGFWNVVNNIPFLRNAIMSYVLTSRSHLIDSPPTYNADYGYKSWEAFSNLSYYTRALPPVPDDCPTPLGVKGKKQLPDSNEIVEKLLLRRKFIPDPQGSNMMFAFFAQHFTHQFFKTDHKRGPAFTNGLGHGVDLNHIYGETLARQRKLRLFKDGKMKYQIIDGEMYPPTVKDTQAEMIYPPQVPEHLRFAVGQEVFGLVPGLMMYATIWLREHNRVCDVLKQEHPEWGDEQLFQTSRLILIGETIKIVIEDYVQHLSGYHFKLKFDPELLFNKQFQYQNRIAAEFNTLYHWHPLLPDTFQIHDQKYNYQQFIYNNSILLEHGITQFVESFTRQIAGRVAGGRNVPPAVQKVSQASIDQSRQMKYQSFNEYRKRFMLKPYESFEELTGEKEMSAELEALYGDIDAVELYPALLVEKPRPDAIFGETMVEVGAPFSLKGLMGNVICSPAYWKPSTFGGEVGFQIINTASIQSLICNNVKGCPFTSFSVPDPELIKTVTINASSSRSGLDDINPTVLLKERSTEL
Method: as §1, §2, §3, §4, §5

T1 sequence (P23219 24-599): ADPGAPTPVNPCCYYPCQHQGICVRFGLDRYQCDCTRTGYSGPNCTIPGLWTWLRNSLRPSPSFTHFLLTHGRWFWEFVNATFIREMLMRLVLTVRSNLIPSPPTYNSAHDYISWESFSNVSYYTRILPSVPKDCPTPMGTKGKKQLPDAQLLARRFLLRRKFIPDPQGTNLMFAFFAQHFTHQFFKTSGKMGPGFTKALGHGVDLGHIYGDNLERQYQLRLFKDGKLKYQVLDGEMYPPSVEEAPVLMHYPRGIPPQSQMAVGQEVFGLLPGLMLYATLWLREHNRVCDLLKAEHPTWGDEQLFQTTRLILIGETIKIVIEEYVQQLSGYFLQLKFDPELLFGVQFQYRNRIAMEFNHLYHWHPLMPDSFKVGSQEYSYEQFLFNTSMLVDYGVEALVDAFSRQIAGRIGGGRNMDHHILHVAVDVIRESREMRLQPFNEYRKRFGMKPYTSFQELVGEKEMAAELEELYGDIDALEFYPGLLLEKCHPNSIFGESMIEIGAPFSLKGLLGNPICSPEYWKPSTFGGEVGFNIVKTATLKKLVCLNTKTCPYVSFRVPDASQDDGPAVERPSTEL

## CS(=O)(=O)c1ccc(-n2cnc(Cl)c2-c2ccc(N3CCCC3)cc2)cc1 [Example 1, 4-Chloro-1-(4-methylsulfonylphenyl)-5-[4-(1-pyrrolidinyl)phenyl]imidazole]
Human COX-1
  inhibition at 0.1 µM: 0%
Human COX-2
  inhibition at 0.1 µM: 61%

## CS(=O)(=O)c1ccc(-n2cnc(Cl)c2-c2ccc(N3CCC(O)C3)cc2)cc1 (stereo not shown) [Example 3, 4-Chloro-5-[4-(3-hydroxypyrrolidin-1-yl)phenyl]-1-(4-methylsulfonylphenyl)imidazole]
Human COX-1
  inhibition at 0.1 µM: 11%
Human COX-2
  inhibition at 0.1 µM: 75%

## CC1CCCN1c1ccc(-c2c(Cl)ncn2-c2ccc(S(C)(=O)=O)cc2)cc1 (stereo not shown) [Example 4, 4-Chloro-5-[4-(2-methylpyrrolidin-1-yl)phenyl]-1-(4-methylsulfonylphenyl)imidazole]
Human COX-1
  inhibition at 0.1 µM: 0%
Human COX-2
  inhibition at 0.1 µM: 72%

## NS(=O)(=O)c1ccc(-n2cnc(Cl)c2-c2ccc(N3CCCC3)cc2)cc1 [Example 5, 4-[4-Chloro-5-[4-(1-pyrrolidinyl)phenyl]imidazol-1-yl]benzenesulfonamide, hydrochloride]
Human COX-1
  inhibition at 0.1 µM: 0%
Human COX-2
  inhibition at 0.1 µM: 70%

## CS(=O)(=O)c1ccc(-n2cnc(Cl)c2-c2ccc(N3CCCC3)c(Cl)c2)cc1 [Example 6, 4-Chloro-5-[3-chloro-4-(1-pyrrolidinyl)phenyl]-1-(4-methylsulfonylphenyl)imidazole]
Human COX-1
  inhibition at 0.1 µM: 0%
Human COX-2
  inhibition at 0.1 µM: 89%

## CS(=O)(=O)c1ccc(-n2cnc(Cl)c2-c2ccc(N3C(=O)CCC3=O)cc2)cc1 [Example 7, 4-Chloro-1-(4-methylsulfonylphenyl)-5-[4-(2,5-dioxopyrrolidin-1-yl)phenyl]imidazole]
Human COX-1
  inhibition at 0.1 µM: 0%
Human COX-2
  inhibition at 0.1 µM: 72%

## CS(=O)(=O)c1ccc(-n2cnc(Cl)c2-c2ccc(N3CC=CC3=O)cc2)cc1 [Example 8, 4-Chloro-1-(4-methylsulfonylphenyl)-5-[4-(2-oxo-3-pyrrolin-1-yl)phenyl]imidazole]
Human COX-1
  inhibition at 0.1 µM: 0%
Human COX-2
  inhibition at 0.1 µM: 76%

## CS(=O)(=O)c1ccc(-n2cnc(Cl)c2-c2ccc(N3CCOC3=O)cc2)cc1 [Example 9, 4-Chloro-1-(4-methylsulfonylphenyl)-5-[4-(2-oxooxazolidin-3-yl)phenyl]imidazole]
Human COX-1
  inhibition at 0.1 µM: 0%
Human COX-2
  inhibition at 0.1 µM: 72%

## CS(=O)(=O)c1ccc(-n2cnc(Cl)c2-c2ccc(N3CCCC3=O)cc2)cc1 [Example 10, 4-Chloro-1-(4-methylsulfonylphenyl)-5-[4-(2-oxopyrrolidin-1-yl)phenyl]imidazole]
Human COX-1
  inhibition at 0.1 µM: 0%
Human COX-2
  inhibition at 0.1 µM: 61%

## CS(=O)(=O)c1ccc(-n2cnc(Cl)c2-c2ccc(N3CCCC3)nc2)cc1 [Example 12, 4-Chloro-1-(4-methylsulfonylphenyl)-5-[6-(1-pyrrolidinyl)-3-pyridyl]imidazole]
Human COX-1
  inhibition at 0.1 µM: 0%
Human COX-2
  inhibition at 0.1 µM: 79%

## CS(=O)(=O)c1ccc(C2=C(c3ccc(N4CC=CC4=O)cc3)C(=O)OC2)cc1 [Example 14, 4-(4-Methylsulfonylphenyl)-3-[4-(2-oxo-3-pyrrolin-1-yl)phenyl]-5H-furan-2-one]
Human COX-1
  inhibition at 0.1 µM: 0%
Human COX-2
  inhibition at 0.1 µM: 49%

## CS(=O)(=O)c1ccc(C2=C(c3ccc(N4CCCC4)cc3)C(=O)OC2)cc1 [Example 15, 4-(4-Methylsulfonylphenyl)-3-[4-(1-pyrrolidinyl)phenyl]-5H-furan-2-one]
Human COX-1
  inhibition at 0.1 µM: 17%
Human COX-2
  inhibition at 0.1 µM: 81%

## CS(=O)(=O)c1ccc(C2=C(c3ccc(N4CCCC4)c(Cl)c3)C(=O)OC2)cc1 [Example 16, 3-[3-Chloro-4-(1-pyrrolidinyl)phenyl]-4-(4-methylsulfonylphenyl)-5H-furan-2-one]
Human COX-1
  inhibition at 0.1 µM: 0%
Human COX-2
  inhibition at 0.1 µM: 93%

## CS(=O)(=O)c1ccc(C2=C(c3ccc(N4CCCC4)nc3)C(=O)OC2)cc1 [Example 17, 4-(4-Methylsulfonylphenyl)-3-[6-(1-pyrrolidinyl)-3-pyridyl]-5H-furan-2-one]
Human COX-1
  inhibition at 0.1 µM: 0%
Human COX-2
  inhibition at 0.1 µM: 81%
